Experimental data reported in US5094945A, “Inhibition resistant 5-enolpyruvyl-3-phosphoshikimate synthase, production and use” (priority 1988, dated 1992).

Key:
[1] = test system: O=C(O)C1=C[C@@H](OP(=O)(O)O)[C@@H](O)[C@H](O)C1; assay: ES-3-P synthase assay (release of inorganic phosphate), enzyme preparation of glyphosate-resistant mutant CT7; assay type: biochemical, S. typhimurium; settings: other: CT7 mutant enzyme preparation; phosphoenolpyruvate 2.5 × 10^-1 M; 37.0 °C
Experimental: (§1) S. typhimurium strains CT7 and STK1 were grown with aeration for 24 hours at 37° C. in M9 broth. Cells were harvested by centrifugation at 4° C., washed twice with M9 salts, resuspended in 0.01 M Tris-HC1 (pH8.2) and sheared with a French press at 20,000 psi. The homogenate was centrifuged at 16,000 g for 40 min and the supernatant treated with 2% protamine sulfate (1.0 ml of 2% protamine sulfate for every 35 mg of protein). The precipitate was removed by centrifugation at 18,000 xg for 35 min, resuspended and used for enzyme assays. Activity of the enzyme was determined by measuring the rate of release of inorganic phosphate (Heinonen and Lahti, Anal. Biochem. (1981) 113:313-317).
(§2) A typical assay mixture contained 150 μmole maleic acid buffer (pH5.6), 2.88 μmole phosphoenolpyruvate, 4.08 μmole 3-phosphoshikimate and the enzyme fraction in a total volume of 1.5 ml. The reaction was started by addition of the enzyme after pre-incubation of the assay mixture at 37° C. for 5 min. Aliquots were taken at timed intervals and mixed immediately with the reagents for phosphate analysis. The low pH of the reagent (1.25 N H2 SO4) terminated enzyme activity.
(§3) Resistance to glyphosate mediated by a mutation(s) at the aroA locus could result from altered regulation leading to overproduction of 5-enolpyruvyl-3phosphoshikimate synthase or to a structural alteration of the enzyme. […]

[2] = test system: O=C(O)C1=C[C@@H](OP(=O)(O)O)[C@@H](O)[C@H](O)C1; assay: ES-3-P synthase assay (release of inorganic phosphate), enzyme preparation of wild type strain STK1; assay type: biochemical, S. typhimurium; settings: other: STK1 wild type enzyme preparation; phosphoenolpyruvate 2.5 × 10^-1 M; 37.0 °C
Experimental: as §1, §2
(§4) Resistance to glyphosate mediated by a mutation(s) at the aroA locus could result from altered regulation leading to overproduction of 5-enolpyruvyl-3phosphoshikimate synthase or to a structural alteration of the enzyme. To distinguish between these two hypotheses in vitro enzyme preparations were assayed from Salmonella strains STK1 and CT7 which are the wild type and mutant strain respectively. 5-Enolpyruvyl-3-phosphoshikimate synthase activities from wild type and glyphosate-resistant mutants differed by Km for 3-phosphoshikimate, Kd for glyphosate, and at high concentration of 3-phosphoshikimate, by specific activity.

[3] = test system: aroA E. coli strains with pPMG11; assay: Glyphosate resistance of aroA E. coli carrying pPMG11; assay type: cell-based; settings: 5.5 Kb BglII/HindIII Salmonella DNA segment (pPMG11)
Experimental: (§5) Glyphosate was added to M9 after autoclaving. For selection experiments, a commercial solution of glyphosate was used. Resistant mutants were isolated by plating bacterial suspensions in M9 broth or on M9 solid medium supplemented with varying amounts of glyphosate. The level of resistance achieved by the mutants was scored by three types of tests: a spot test, consisting of toothpicking a small colony from a non-selective to a selective medium; a streak test, consisting of streaking cells on a selective plate to obtain single colonies; and growth curves, to determine the kinetics of growth in liquid medium supplemented with glyphosate.
To subclone the aroA-Pmg^r gene, plasmid pPMG1 was digested with the restriction endonuclease BglII. […] Plasmid pPMG1 was digested to completion with BglII, ligated in vitro and the DNA transformed into strain LC2 selecting for aroA complementation. Clones were screened and plasmids containing the 10 Kb BglII fragment in both orientations relative to the vector pVK100 were identified. Plasmids pPMG5 and pPMG6 complemented aroA E. coli strains and conferred high levels of glyphosate resistance. Further subcloning was accomplished by digesting plasmid pPMG5 with BglII and HindIII and ligating in vitro. Strain LC2 was transformed and colonies which were aroA+ and kanamycin sensitive were selected. […] This plasmid was designated pPMG11.

[4] = test system: S. typhimurium Pmg^r mutants (fifteen mutants, incl. CT7); assay: Streak test on M9 medium with glyphosate; assay type: cell-based; settings: streaked on M9 medium
Experimental: as §5

[5] = target: T1, 5-enolpyruvyl-3-phosphoshikimate synthase from wild type strain STK1 (Salmonella typhimurium, UniProt P07637); assay: ES-3-P synthase assay (release of inorganic phosphate), enzyme preparation of wild type strain STK1; assay type: biochemical, S. typhimurium
T1 construct: endogenous in cells; host or cells: S. typhimurium strain STK1, French press homogenate, protamine sulfate precipitate
Experimental: as §1, §2, §4

[6] = test system: S. typhimurium strain TA831; assay: Colony formation on solid M9 medium with glyphosate; assay type: cell-based; settings: Salmonella enterica, read-out: glyphosate concentration at which no colonies form
Experimental: as §5

S. typhimurium STK1 = assay: Growth in minimal medium supplemented with glyphosate, wild type; assay type: cell-based; settings: Salmonella enterica, minimal medium with 70 μg/ml glyphosate
Experimental: as §5
(§6) The above assays were performed on enzyme preparations obtained from cells grown in minimal medium. To determine whether the enzyme of the glyphosate resistance mutant was differentially regulated during glyphosate induced stress, STK1, the wild type, and CT7 the mutant, were grown in minimal medium supplemented, respectively, with 70 μg/ml and 1000 μg/ml of glyphosate. These conditions give approximately 20-30% growth inhibition. The specific activity of preparations from cells grown in the presence of glyphosate was 10% higher than that found in preparations from cells grown without glyphosate.

[7] = target: T2, EPSP synthase purified from the mutant glyphosate-resistant strain (Salmonella typhimurium, UniProt P07637, P101S); assay: Fluorimetric EPSP synthase assay, forward direction, purified mutant enzyme; assay type: biochemical, S. typhimurium
T2 construct: ES-3-P synthase purified from wild-type S. typhimurium and from the mutant glyphosate-resistant strain; endogenous in cells; host or cells: mutant glyphosate-resistant S. typhimurium strain (purified)
Experimental: (§7) In the next study, a comparison of the kinetic parameters at pH 7.0 of ES-3-P synthase purified from wild-type S. typhimurium and from the mutant glyphosate-resistant strain was made. Enzyme activity was assayed fluorometrically in the forward direction as described by Boocock and Coggins, FEBS Letters (1983) 154:127-133.

[8] = target: T3, EPSP synthase from the glyphosate-resistant strain of S. typhimurium (Salmonella typhimurium, UniProt P07637, P101S); assay: EPSP synthase activity with inhibitor, bacterial mutant enzyme; assay type: biochemical; settings: pH 7, read-out: EPSP Synthase Activity, % control
T3 construct: EPSP synthase activities from the glyphosate-resistant strain of S. typhimurium; endogenous in cells; host or cells: glyphosate-resistant strain of S. typhimurium
Experimental: (§8) In the next study, the effect of glyphosate and antiserum to bacterial EPSP synthase on EPSP synthase activities from the glyphosate-resistant strain of S. typhimurium, from the wild-type turnip gall and from ocs-aroA turnip gall was studied. Enzyme activity was assayed fluorometrically in the forward direction as described by Boocock and Coggins, supra.

[9] = target: T4, 5-enolpyruvyl-3-phosphoshikimate synthase from glyphosate-resistant mutant CT7 (Salmonella typhimurium, UniProt P07637, P101S); assay: ES-3-P synthase assay (release of inorganic phosphate), enzyme preparation of glyphosate-resistant mutant CT7; assay type: biochemical, S. typhimurium
T4 construct: endogenous in cells; host or cells: S. typhimurium strain CT7, French press homogenate, protamine sulfate precipitate
Experimental: as §1, §2, §3

wild type E. coli = assay: Growth kinetics with glyphosate, wild type E. coli; assay type: cell-based
Experimental: as §5
(§9) The growth kinetics of both S. typhimurium and E. coli strains with wild type and mutant aroA locus were investigated.

[10] = test system: EPSP synthase from ocs-aroA transformed turnip gall; assay: EPSP synthase activity with inhibitor, ocs-aroA transformed turnip gall extract; assay type: biochemical; settings: pH 7.0, PEP 500 μM, shik 3P 500 μM
Experimental: as §8

[11] = test system: S. typhimurium strain CTF3; assay: Spot test for glyphosate resistance; assay type: cell-based
Experimental: as §5

[12] = test system: aroA E. coli strain LC3 harboring pPMG1; assay: Growth kinetics with glyphosate, LC3 harboring pPMG1; assay type: cell-based; settings: 2 μg/ml of glyphosate
Experimental: as §5, §9

S. typhimurium CT7 = assay: Growth in minimal medium supplemented with glyphosate, mutant; assay type: cell-based; settings: Salmonella enterica, read-out: growth inhibition
Experimental: as §5, §6

[13] = target: T5, EPSP synthase purified from wild type S. typhimurium (Salmonella typhimurium, UniProt P07637); assay: Fluorimetric EPSP synthase assay, forward direction, purified wild type enzyme; assay type: biochemical; settings: pH 7.0, 500 μM shik 3-P, read-out: Ki for glyphosate
T5 construct: ES-3-P synthase purified from wild-type S. typhimurium; endogenous in cells; host or cells: wild-type S. typhimurium (purified)
Experimental: as §7

[14] = test system: EPSP synthase from wild type turnip gall; assay: EPSP synthase activity with inhibitor, wild type turnip gall extract; assay type: biochemical; settings: pH 7.0, PEP 500 μM, shik 3P 500 μM
Experimental: as §8

C=C(OP(=O)(O)O)C(=O)O [15] = assay: Fluorimetric EPSP synthase assay, forward direction, purified mutant enzyme; assay type: biochemical, S. typhimurium; settings: other: mutant, pH 7.0, 500 μM shik 3-P
Experimental: as §7

[16] = test system: O=C(O)C1=C[C@@H](OP(=O)(O)O)[C@@H](O)[C@H](O)C1; assay: as above; assay type: biochemical, S. typhimurium; settings: other: mutant, pH 7.0, 500 μM PEP
Experimental: as §7

C=C(OP(=O)(O)O)C(=O)O [17] = assay: Fluorimetric EPSP synthase assay, forward direction, purified wild type enzyme; assay type: biochemical, S. typhimurium; settings: other: wild type, pH 7.0, 500 μM shik 3-P
Experimental: as §7

[18] = test system: O=C(O)C1=C[C@@H](OP(=O)(O)O)[C@@H](O)[C@H](O)C1; assay: as above; assay type: biochemical, S. typhimurium; settings: other: wild type, pH 7.0, 500 μM PEP
Experimental: as §7

T1 sequence (P07637 whole entry): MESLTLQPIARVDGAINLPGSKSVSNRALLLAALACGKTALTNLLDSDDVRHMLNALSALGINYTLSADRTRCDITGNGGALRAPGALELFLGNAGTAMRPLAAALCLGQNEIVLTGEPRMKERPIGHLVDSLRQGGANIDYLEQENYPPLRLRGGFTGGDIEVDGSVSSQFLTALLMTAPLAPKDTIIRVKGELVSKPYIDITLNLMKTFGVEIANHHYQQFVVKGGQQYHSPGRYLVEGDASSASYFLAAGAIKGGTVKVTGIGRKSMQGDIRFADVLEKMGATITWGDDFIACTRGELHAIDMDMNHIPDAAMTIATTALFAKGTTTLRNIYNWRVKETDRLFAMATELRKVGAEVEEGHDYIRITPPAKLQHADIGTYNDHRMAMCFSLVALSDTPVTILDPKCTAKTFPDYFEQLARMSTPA
T3 sequence (P07637 whole entry P101S): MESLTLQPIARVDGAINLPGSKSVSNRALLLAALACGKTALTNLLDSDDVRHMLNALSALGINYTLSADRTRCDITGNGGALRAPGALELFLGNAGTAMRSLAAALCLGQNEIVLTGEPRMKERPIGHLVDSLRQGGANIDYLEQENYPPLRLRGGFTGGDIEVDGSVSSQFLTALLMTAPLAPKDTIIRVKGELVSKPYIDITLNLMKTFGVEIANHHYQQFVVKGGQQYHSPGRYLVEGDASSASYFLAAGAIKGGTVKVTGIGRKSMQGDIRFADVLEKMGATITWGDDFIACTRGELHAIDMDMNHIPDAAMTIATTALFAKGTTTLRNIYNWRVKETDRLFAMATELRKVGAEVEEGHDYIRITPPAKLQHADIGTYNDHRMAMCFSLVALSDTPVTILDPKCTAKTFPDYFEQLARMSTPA
T5 sequence (P07637 whole entry): as the sequence (P07637 whole entry) above
T4 sequence (P07637 whole entry P101S): as the sequence (P07637 whole entry P101S) above
T2 sequence (P07637 whole entry P101S): as above

“5-enolpyruvyl-3-phosphoshikimate synthase from glyphosate-resistant mutant CT7 (Salmonella enterica subsp. enterica serovar Typhimurium str. LT2; P101S)” was tested, and the Km [1] was 2800 µM.

With “5-enolpyruvyl-3-phosphoshikimate synthase from wild type strain STK1 (Salmonella enterica subsp. enterica serovar Typhimurium str. LT2)” the Km [2] was 340 µM.

In the case of O=C(O)CNCP(=O)(O)O [glyphosate, N-phosphonomethyl glycine], the “level of glyphosate resistance conferred” value [3] is reported as “approx. 2 mg/ml”, the “glyphosate concentration on which colonies formed in 48 hours” value [4] is reported as 2 mg/mL and the activation at 70 µg/mL ([5]; STK1 grown with 70 μg/ml glyphosate, read-out: increase of ES-3-P synthase specific activity, cells grown with vs without glyphosate) is reported as 10%. The Kd ([5]; STK1 wild type enzyme preparation, read-out: Kd glyphosate) was 22 µM, the MIC [6] was over 200 µg/mL and the inhibition at 70 µg/mL (S. typhimurium STK1) was 20 to 30%. The Ki [7] was 5 µM, the remaining activity at 100 µM [8] was 35% and the remaining activity at 500 µM [8] was 9%. For the same compound, the Kd [9] was 190 µM, the inhibition at 100 µg/mL (wild type E. coli; Escherichia coli, 100 μg/ml glyphosate, read-out: inhibition of growth rate) was 40% and the growth (wild type E. coli; one mg/ml glyphosate) was “no growth was observed”. The “EPSP Synthase Activity, % control” value ([10]; glyphosate 100 μM) was 29 % control, the “EPSP Synthase Activity, % control” value ([10]; glyphosate 500 μM) was 9 % control and the “glyphosate concentration to which the strain was resistant” value [11] was 350 µg/mL. For the same compound, the growth inhibition [12] was “not significantly inhibited”, the inhibition at 1000 µg/mL (S. typhimurium CT7) was 20 to 30% and the Ki [13] was 1.5 µM. The “EPSP Synthase Activity, % control” value ([14]; glyphosate 100 μM) was 8 % control and the “EPSP Synthase Activity, % control” value ([14]; glyphosate 500 μM) was 2 % control.

For “EPSP synthase purified from the mutant glyphosate-resistant strain (Salmonella enterica subsp. enterica serovar Typhimurium str. LT2; P101S)”, the Km (C=C(OP(=O)(O)O)C(=O)O [15]) was 22 µM and the Km [16] was 1.6 µM.

“EPSP synthase purified from wild type S. typhimurium (Salmonella enterica subsp. enterica serovar Typhimurium str. LT2)” was tested, and the Km (C=C(OP(=O)(O)O)C(=O)O [17]) was 30 µM and the Km [18] was 2.6 µM.
